Assay results as given in US20100076015A1, “Aminopyridine Derivatives” (VANTIA LIMITED, priority 2008, published 2010).

How the values were obtained:
Format in all cases: biochemical
Human KLK1 = molecular target: T1, Human KLK1 (Homo sapiens, UniProt P06870); test: Determination of the IC50 for KLK1 (fluorogenic substrate H-DVal-Leu-Arg-AFC); conditions: 37° C.
T1 construct: purchased Callbiochem (Calbiochem)
How it was run: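 Human KLK1 incubated at 37 °C with fluorogenic substrate H-DVal-Leu-Arg-AFC and a range of test compound concentrations. Residual activity was taken as initial reaction rate from absorbance change at 410 nm, and the IC50 derived from it.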

thrombin = thrombin (Homo sapiens, UniProt P00734); test: Enzyme selectivity: thrombin (chromogenic substrate S-2238); conditions: chromogenic substrate S-2238, 37° C.
Protocol: (§1) Determination of Enzyme Selectivity
(§2) Selected compounds were further screened for inhibitory activity against other trypsin-like serine proteases using the appropriate enzyme and chromogenic substrate (Chromogenix AB). The activity against the following human enzymes was tested (substrate in brackets):—plasma kallikrein (S-2302), thrombin (S-2238), plasmin (S-2390) and trypsin (S-2222). The enzyme was incubated at 37° C. with the chromogenic substrate. Residual enzyme activity (initial rate of reaction) was determined by measuring the change in optical absorbance at 405 nm.

trypsin = test: Enzyme selectivity: trypsin (chromogenic substrate S-2222); conditions: human enzyme, chromogenic substrate S-2222, 37° C.
Protocol: as §1, §2

plasma kallikrein = plasma kallikrein (Homo sapiens, UniProt P03952); test: Enzyme selectivity: plasma kallikrein (chromogenic substrate S-2302); conditions: chromogenic substrate S-2302, 37° C.
Chain of plasma kallikrein (P03952 20-638): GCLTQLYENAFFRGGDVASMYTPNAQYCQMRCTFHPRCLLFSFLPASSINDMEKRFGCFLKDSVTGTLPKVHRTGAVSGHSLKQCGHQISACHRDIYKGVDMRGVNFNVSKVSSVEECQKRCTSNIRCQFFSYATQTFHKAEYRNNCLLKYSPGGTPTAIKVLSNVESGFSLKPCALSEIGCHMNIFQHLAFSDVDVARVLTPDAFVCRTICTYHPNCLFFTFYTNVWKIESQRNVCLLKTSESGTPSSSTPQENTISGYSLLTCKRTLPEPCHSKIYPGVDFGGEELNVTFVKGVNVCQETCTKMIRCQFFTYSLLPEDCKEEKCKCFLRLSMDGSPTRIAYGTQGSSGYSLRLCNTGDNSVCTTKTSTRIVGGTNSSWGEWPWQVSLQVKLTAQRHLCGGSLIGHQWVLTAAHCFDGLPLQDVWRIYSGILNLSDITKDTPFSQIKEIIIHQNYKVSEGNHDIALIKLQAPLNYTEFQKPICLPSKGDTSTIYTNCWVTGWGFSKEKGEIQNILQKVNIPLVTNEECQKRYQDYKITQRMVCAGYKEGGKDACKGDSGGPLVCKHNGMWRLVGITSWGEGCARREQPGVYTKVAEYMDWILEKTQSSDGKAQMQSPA
Protocol: as §1, §2

plasmin = plasmin (Homo sapiens, UniProt P00747); test: Enzyme selectivity: plasmin (chromogenic substrate S-2390); conditions: chromogenic substrate S-2390, 37° C.
Chain of plasmin (P00747 581-810 limits assumed): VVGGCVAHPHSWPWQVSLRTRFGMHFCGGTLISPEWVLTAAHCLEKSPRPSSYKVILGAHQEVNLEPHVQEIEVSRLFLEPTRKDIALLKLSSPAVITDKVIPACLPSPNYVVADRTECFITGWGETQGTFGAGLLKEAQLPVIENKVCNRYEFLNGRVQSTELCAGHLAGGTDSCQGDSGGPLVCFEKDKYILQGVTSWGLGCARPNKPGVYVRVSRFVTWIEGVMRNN
Chain of plasmin (P00747 97-580 partner limits assumed): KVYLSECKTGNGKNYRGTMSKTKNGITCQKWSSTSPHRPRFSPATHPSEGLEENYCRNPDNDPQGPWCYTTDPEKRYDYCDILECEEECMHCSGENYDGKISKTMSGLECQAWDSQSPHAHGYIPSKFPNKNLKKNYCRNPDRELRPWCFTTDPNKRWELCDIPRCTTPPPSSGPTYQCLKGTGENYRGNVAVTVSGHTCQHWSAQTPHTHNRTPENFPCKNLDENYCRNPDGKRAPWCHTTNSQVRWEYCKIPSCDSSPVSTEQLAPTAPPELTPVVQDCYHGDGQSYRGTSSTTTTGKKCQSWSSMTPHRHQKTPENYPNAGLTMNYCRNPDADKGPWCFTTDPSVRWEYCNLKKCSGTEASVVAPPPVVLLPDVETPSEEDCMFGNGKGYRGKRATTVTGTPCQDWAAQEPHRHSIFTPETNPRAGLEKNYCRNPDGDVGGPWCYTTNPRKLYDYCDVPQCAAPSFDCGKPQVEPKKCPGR
Protocol: as §1, §2

T1 sequence (P06870 25-262): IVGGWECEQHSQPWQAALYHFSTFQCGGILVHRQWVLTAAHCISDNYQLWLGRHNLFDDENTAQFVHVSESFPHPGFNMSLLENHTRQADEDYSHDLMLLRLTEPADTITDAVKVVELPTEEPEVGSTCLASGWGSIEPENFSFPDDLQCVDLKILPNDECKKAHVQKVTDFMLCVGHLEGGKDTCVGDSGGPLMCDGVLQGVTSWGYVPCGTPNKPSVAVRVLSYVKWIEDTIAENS

SMILES | IC50 (Human KLK1) | IC50 (thrombin) | IC50 (trypsin) | IC50 (plasma kallikrein) | IC50 (plasmin)
Cc1cccc(C[C@H](NC(=O)c2[nH]c(C)cc2C)C(=O)NCc2ccc(N)nc2)c1 [Example 234, 3,5-Dimethyl-1H-pyrrole-2-carboxylic acid {(S)-1-[(6-amino-pyridin-3-ylmethyl)-carbamoyl]-2-m-tolyl-ethyl}-amide] | 0.0032 µM | > 10 µM | > 10 µM | > 10 µM | > 10 µM
Cc1cc(C)c(C(=O)N[C@@H](Cc2cccc(Cl)c2)C(=O)NCc2ccc(N)nc2)[nH]1 [Example 235, 3,5-Dimethyl-1H-pyrrole-2-carboxylic acid [(S)-1-[(6-amino-pyridin-3-ylmethyl)-carbamoyl]-2-(3-chloro-phenyl)-ethyl]-amide] | 0.0024 µM | > 10 µM | > 10 µM | > 10 µM | > 10 µM
Cc1cc(C)c(C(=O)N[C@@H](Cc2ccc(F)cc2)C(=O)NCc2ccc(N)nc2)[nH]1 [Example 242, 3,5-Dimethyl-1H-pyrrole-2-carboxylic acid [(S)-1-[(6-amino-pyridin-3-ylmethyl)-carbamoyl]-2-(4-fluoro-phenyl)-ethyl]-amide] | 0.0044 µM | > 10 µM | > 10 µM | > 10 µM | > 10 µM
Cc1cc(C)c(C(=O)N[C@@H](Cc2ccc(F)c(F)c2)C(=O)NCc2ccc(N)nc2)[nH]1 [Example 243, 3,5-Dimethyl-1H-pyrrole-2-carboxylic acid [(S)-1-[(6-amino-pyridin-3-ylmethyl)-carbamoyl]-2-(3,4-difluoro-phenyl)-ethyl]-amide] | 0.0034 µM | > 10 µM | > 10 µM | > 10 µM | > 10 µM
CCN(CC)[C@@H](C)C(=O)N[C@@H](Cc1ccc(F)c(F)c1)C(=O)NCc1ccc(N)nc1 [Example 355, (S)—N-[(S)-1-[(6-Amino-pyridin-3-ylmethyl)-carbamoyl]-2-(3,4-difluoro-phenyl)-ethyl]-2-diethylamino-propionamide] | 0.0025 µM | > 10 µM | > 10 µM | > 10 µM | > 10 µM
CC1CCCC(C)N1CC(=O)N[C@@H](Cc1ccc(F)c(F)c1)C(=O)NCc1ccc(N)nc1 (stereo partly drawn) [Example 365, (S)—N-(6-Amino-pyridin-3-ylmethyl)-3-(3,4-difluoro-phenyl)-2-[2-(2,6-dimethyl-piperidin-1-yl)-acetylamino]-propionamide] | 0.0025 µM | > 10 µM | > 10 µM | > 10 µM | > 10 µM
CCN(CC)[C@@H](C)C(=O)N[C@@H](CC1CCCCC1)C(=O)NCc1ccc(N)nc1 [Example 390, (S)—N-{(S)-1-[(6-Amino-pyridin-3-ylmethyl)-carbamoyl]-2-cyclohexyl-ethyl}-2-diethylamino-propionamide] | 0.0027 µM | > 10 µM | > 10 µM | > 10 µM | > 10 µM
CC(C)N(C)[C@@H](C)C(=O)N(C)[C@@H](CC1CCCCC1)C(=O)NCc1ccc(N)nc1 [Example 437, (S)—N-{(S)-1-[(6-Amino-pyridin-3-ylmethyl)-carbamoyl]-2-cyclohexyl-ethyl}-2-(isopropyl-methyl-amino)-N-methyl-propionamide] | 0.0042 µM | > 10 µM | > 10 µM | > 10 µM | > 10 µM

Now those with a lower IC50 (Human KLK1), led by results:

IC50 (Human KLK1) | IC50 (thrombin) | IC50 (trypsin) | IC50 (plasma kallikrein) | IC50 (plasmin) | SMILES
0.0021 µM | > 10 µM | > 10 µM | > 10 µM | > 10 µM | Cc1cc(C)c(C(=O)N[C@@H](Cc2ccc(Cl)c(Cl)c2)C(=O)NCc2ccc(N)nc2)[nH]1 [Example 233, 3,5-Dimethyl-1H-pyrrole-2-carboxylic acid [(S)-1-[(6-amino-pyridin-3-ylmethyl)-carbamoyl]-2-(3,4-dichloro-phenyl)-ethyl]-amide]
0.0017 µM | > 10 µM | > 10 µM | > 10 µM | > 10 µM | CN(C)[C@H](Cc1ccccc1)C(=O)N[C@@H](Cc1ccc(Cl)c(Cl)c1)C(=O)NCc1ccc(N)nc1 [Example 400, (R)—N-[(S)-1-[(6-Amino-pyridin-3-ylmethyl)-carbamoyl]-2-(3,4-dichloro-phenyl)-ethyl]-2-dimethylamino-3-phenyl-propionamide]
0.0015 µM | > 10 µM | > 10 µM | > 10 µM | > 10 µM | Cc1cc(C)c(C(=O)N[C@@H](Cc2cccc(C(F)(F)F)c2)C(=O)NCc2ccc(N)nc2)[nH]1 [Example 232, 3,5-Dimethyl-1H-pyrrole-2-carboxylic acid [(S)-1-[(6-amino-pyridin-3-ylmethyl)-carbamoyl]-2-(3-trifluoromethyl-phenyl)-ethyl]-amide]
0.0011 µM | > 10 µM | > 10 µM | > 10 µM | > 10 µM | CC(C)N(C)[C@@H](C)C(=O)N[C@@H](CC1CCCCC1)C(=O)NCc1ccc(N)nc1 [Example 381, (S)—N-{(S)-1-[(6-Amino-pyridin-3-ylmethyl)-carbamoyl]-2-cyclohexyl-ethyl}-2-(isopropyl-methyl-amino)-propionamide]
0.0009 µM | > 10 µM | > 10 µM | > 10 µM | > 10 µM | Cc1cc(C)c(C(=O)N[C@@H](Cc2cccc(C(F)(F)F)c2)C(=O)NCc2ccc(N)nc2C)[nH]1 [Example 277, 3,5-Dimethyl-1H-pyrrole-2-carboxylic acid [(S)-1-[(6-amino-2-methyl-pyridin-3-ylmethyl)-carbamoyl]-2-(3-trifluoromethyl-phenyl)-ethyl]-amide]
0.00082 µM | > 10 µM | > 10 µM | > 10 µM | > 10 µM | CCC(C)[C@H](C(=O)N[C@@H](Cc1ccc(Cl)c(Cl)c1)C(=O)NCc1ccc(N)nc1)N(C)C (stereo partly drawn) [Example 398, (R)-2-Dimethylamino-3-methyl-pentanoic acid [(S)-1-[(6-amino-pyridin-3-ylmethyl)-carbamoyl]-2-(3,4-dichloro-phenyl)-ethyl]-amide]
